Compound in assay [1]: C[C@@]1(C(=O)Nc2ccc(F)nc2)CCCN1c1nc(Nc2cc(C3CC3)n[nH]2)c2cccn2n1 + COc1cc2c(Oc3ccc(NC(=O)C4(C(=O)Nc5ccc(F)cc5)CC4)cc3F)ccnc2cc1OCCCN1CCOCC1 [Foretinib] (partner 0.25 µM)
Put plainly: relative viability (nuclei count vs DMSO), 5 days (fraction); higher = more cells survive. A digest of the protocol: (§1)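 Relative viability divides the nuclei count in treated wells by that in vehicle wells. Lung cancer cell lines were seeded in 1536-well plates, dosed by pin tool the next day, and fixed and stained after 5 days in one step with final 0.05% Triton X-100, 1% formaldehyde and 1 ug/ml Hoechst. Dosing was a single drug or a fixed anchor-drug dose plus five library-drug doses (not always all listed) in √10 steps, and values are medians of duplicate plates imaged at 4×.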

Compound in assay [2]: CC1(C)CNc2cc(NC(=O)c3cccnc3NCc3ccncc3)ccc21 [Motesanib] + CC1(C)CCC(c2ccc(Cl)cc2)=C(CN2CCN(c3ccc(C(=O)NS(=O)(=O)c4ccc(N[C@H](CCN5CCOCC5)CSc5ccccc5)c(S(=O)(=O)C(F)(F)F)c4)cc3)CC2)C1 [Navitoclax] (partner 0.5 µM)
The description is as above. A digest of the protocol: as §1

The results in this text go back to the supplement of paper PMC10307832.

EBC-1: the relative viability in assay [1] (first compound 0.04 µM) worked out at 0.114; in assay [1] (first compound 0.1265 µM), 0.0828; in assay [1] (first compound 0.4 µM) it was 0.0953; in assay [1] (first compound 1.265 µM), 0.11; in assay [2] (first compound 0.01 µM), 0.48; in assay [2] (first compound 0.03162 µM) it was 0.419. The relative viability was found to be 0.377 in assay [2] (first compound 0.1 µM), 0.47 in assay [2] (first compound 0.3162 µM) and 0.417 in assay [2] (first compound 1 µM).
